Consider 7 compounds from patent publication US10433544B2, “Herbicide” (University of Kentucky Research Foundation, priority 2017, dated 2019).

The target in test [1] is T1, sorbitol dehydrogenase (SDH) (Ovis aries, UniProt P07846).
T1 sequence (P07846 1-354): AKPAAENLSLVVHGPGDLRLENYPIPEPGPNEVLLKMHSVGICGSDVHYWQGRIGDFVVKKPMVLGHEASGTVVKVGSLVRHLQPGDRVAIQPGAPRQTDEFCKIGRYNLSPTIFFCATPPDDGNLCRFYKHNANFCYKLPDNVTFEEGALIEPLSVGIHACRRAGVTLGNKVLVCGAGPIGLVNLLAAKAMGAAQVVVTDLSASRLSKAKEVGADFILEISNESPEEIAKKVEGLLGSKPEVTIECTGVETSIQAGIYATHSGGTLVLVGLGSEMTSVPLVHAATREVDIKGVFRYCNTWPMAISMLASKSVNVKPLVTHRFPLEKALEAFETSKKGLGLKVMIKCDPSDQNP
As to conditions: cited from earlier work.

The test system of test [2] is seed of alfalfa, dandelion and mixed grasses. The test can be described thus: Seed germination in 300 mM solutions of fructose and polyols (FIG. 1). It is filed as in vivo. As to conditions: ribitol/xylitol 150 mM + 150 mM, 8 days of incubation. The protocol: FIG. 1 includes a chart showing the effect of 300 mM solutions of fructose and polyols, and a 150 mM ribitol plus 150 mM xylitol (R+X) formulation on seed germination. Means±standard deviation are across alfalfa, dandelion and mixed grasses after 8 days of incubation.
Seed of several species were incubated with 300 mM solutions of fructose, inositol, sorbitol, ribitol, xylitol as well as a ribitol/xylitol solution.

Test [3] deals with growing plants of several weed species, including clover and pigweed. The test can be described thus: Container studies, application to growing plants of several weed species (FIG. 3). As to conditions: for effect of application on growing plants: 300 mM total concentration, twice a week for 2 weeks; for rank order of the effect / severity of effect across species: 300 mM; for rank order of the effect: injury and death of growing plants; for severity of effect across species: container studies. It is filed as in vivo, white clover and pigweed. The protocol: FIG. 3 includes images showing the effect of application of selected sugars and polyols twice a week for 2 weeks to white clover (A) and pigweed (B) plants.
(§1) In container studies, fructose, inositol, sorbitol, ribitol, xylitol as well as a ribitol/xylitol solution were applied at 300 mM total concentration to plants including white clover and pigweed. […] Other common sugars like glucose and fructose had no effect. […] Due to the desire for a broad spectrum herbicide that affected both seed germination and plant growth the most, and to keep the most expensive component, ribitol, to a low effective level, we concluded that the 150 mM ribitol/150 mM xylitol formulation (300 mM combined concentration) was the optimum for field tests.

For test [4], the system named is seed germination of numerous plant species. The test can be described thus: Ribitol toxicity effect on seed germination, numerous plant species. In kind it is in vivo. Particulars: ribitol with no adjuvant. The text has this:
An increasing number of species have been identified as bearing the SDH gene and activity (Jia et al., […]), so most weed species could likely metabolize it.

Another test has as its system seed of turfgrass. As to the kind of experiment: Turfgrass seed germination in xylitol, ribitol and ribitol/xylitol solutions (FIG. 2A). In kind it is in vivo. As to conditions: total concentrations 100 to 300 mM, 10 days. The protocol: (§2) FIG. 2 includes images of grass (A) and Dutch white clover (B) seed germination after 10 days in solutions of xylitol alone, ribitol alone, and xylitol+ribitol, at total concentrations of 100 to 300 mM (grass) or 100 to 400 mM (clover).
(§3) Seed of turfgrass (FIG. 2A) and Dutch white clover (FIG. 2B) were incubated with solutions of xylitol, ribitol, and a ribitol/xylitol solution at 100 to 300 mM (A) or 100 to 400 mM (B). […] The clover seed was in developmental arrest at 400 mM ribitol and 300 mM ribitol/xylitol.

In test [5] the test system is seed of Dutch white clover. The test can be described thus: Dutch white clover seed germination in xylitol, ribitol and ribitol/xylitol solutions (FIG. 2B). As to conditions: total concentrations 100 to 400 mM, 10 days. In kind it is in vivo. The protocol: as §2, §3
The test system of another test is dandelion plants. The test can be described thus: Container studies, spraying of dandelion plants (FIG. 4). It is filed as in vivo. As to conditions: 300 mm, ribitol+xylitol each at 150 mM, sprayed twice weekly for 2 weeks. How it is done:
FIG. 4 includes images showing the effect of application of […] fructose, glucose, sorbitol, ribitol, xylitol, or ribitol+xylitol (each at 150 mM) twice weekly for 2 weeks on dandelion plants.
as §1

Test [6] relates to wild type Arabidopsis seeds. The test can be described thus: Seed germination with ribitol and SDH specific inhibitor (FIG. 8), Arabidopsis. In kind it is in vivo. Particulars: 150 mM ribitol, 0.5 mM CP-470711, six days. The protocol: (§4) FIG. 8 includes images showing the effect of blocking SDH activity with (A) water (B) 150 mM ribitol (C) the SDH-specific inhibitor CP-470711(Pfizer) and (D) ribitol+CP-470711 on sensitivity of seed germination of Wild Type Arabidopsis, tomato, and rice for 6 days.
(§5) The effect of blocking SDH activity with an SDH specific inhibitor was explored with application to wild type Arabidopsis, tomato and rice seeds for six days. […] Each compound alone at the same concentration had no effect.

For a further test, the system named is tomato seeds. As to the kind of experiment: Seed germination with ribitol and SDH specific inhibitor (FIG. 8), tomato. It is filed as in vivo. As to conditions: 150 mM ribitol, 0.5 mM CP-470711, six days. The protocol:
as §4, §5

The next test has as its system rice seeds. As to the kind of experiment: Seed germination with ribitol and SDH specific inhibitor (FIG. 8), rice. In kind it is in vivo. As to conditions: 150 mM ribitol, 0.5 mM CP-470711, six days. How it is done:
as §4, §5

The subject of test [7] is sdh-knockout mutant plants and Wild Type plants. As to conditions: 50 mM ribitol, cited from earlier work.
Another test relates to seed germination. Particulars: when it cannot be metabolized properly; cited from earlier work.

On to `SCc1ccccc1` [1-thio-1-phenylmethane], for which the SDH inhibition result in test [1] is “effective SDH inhibitors”.

For the compound `SCCc1ccccc1` [1-thio-2-phenylethane], the SDH inhibition entry in test [1] is “effective SDH inhibitors”.

`O=C(CO)[C@@H](O)[C@H](O)[C@H](O)CO` [fructose, reference compound]: in test [2], the “inhibition of seed germination” value was “only significantly inhibited by the ribitol/xylitol solution”. In [3], the “effect of application on growing plants” value was “no effect”.

As to `O[C@H]1[C@H](O)[C@@H](O)[C@H](O)[C@@H](O)[C@H]1O` [inositol, reference compound], the “inhibition of seed germination” value in test [2] was “only significantly inhibited by the ribitol/xylitol solution”.

With `OC[C@@H](O)[C@@H](O)[C@@H](O)CO` [ribitol], the “ribitol concentration at which toxicity effect on seed germination occurred” value in test [4] is recorded as ≥ 300 mM. Besides, the “inhibition of seed germination” value in [2] was “only significantly inhibited by the ribitol/xylitol solution”. Further, in the test on seed of turfgrass, the “concentration at which grass seed was significantly inhibited” value worked out at 300 mM. Besides, in test [5], the “concentration at which clover seed was in developmental arrest” value was found to be 400 mM. Moreover, in [3], the “effect of application on growing plants” value is “caused injury and death”. In [3], the “rank order of the effect” value is on record as “sorbitol<xylitol≤ribitol”. In addition, the “effect on dandelion plants” value with dandelion plants is “death of plants”. Further, the “effect on seed germination” value is on record as “no effect” in test [6], “no effect” with tomato seeds, “no effect” in the test on rice seeds and “inhibited seed germination” with seed germination. For the same compound, in [7] (Wild Type plants), the “effect of application on Wild Type plants” value is listed as “no effect”. Also, the “effect of application on sdh-knockout mutant plants” value in test [7] (well-watered sdh-knockout mutant plants) is “quick injury and eventual death”.

With `OC[C@@H](O)[C@@H](O)[C@H](O)[C@@H](O)CO` [sorbitol], the “inhibition of seed germination” value in test [2] is reported as “only significantly inhibited by the ribitol/xylitol solution”. In addition, in [3], the “effect of application on growing plants” value is “caused injury and death”; the “severity of effect across species” value is listed as “caused damage”; the “rank order of the effect” value is on record as “sorbitol<xylitol≤ribitol”.

With `OC[C@@H](O)[C@H](O)[C@@H](O)CO` [xylitol], in test [2], the “inhibition of seed germination” value was “only significantly inhibited by the ribitol/xylitol solution”. In addition, in [3], the “effect of application on growing plants” value was “caused injury and death”; the “severity of effect across species” value is “caused damage”; the “rank order of the effect” value is “sorbitol<xylitol≤ribitol”. The “effect on dandelion plants” value in the test on dandelion plants is “death of plants”.
